According to publication PMC7063992, “Opossum Cathelicidins Exhibit Antimicrobial Activity Against a Broad Spectrum of Pathogens Including West Nile Virus” (Frontiers in Immunology, 2020):
No end group written: not given here.

What was measured:
[1] = test system: Bacillus cereus ATCC 10876; test: microbe, parasite or virus in culture; assay type: cell-based; settings: B. cereus ATCC 10876; MHB, 37°C 6 h + 2 h; triplicate
Experimental: (§1) Peptides corresponding to the predicted antimicrobial regions of ModoCath1 (ΔModoCath1, N-VKRTKRGARRGL […]-C), ModoCath5 (ΔModoCath5, N-[…]-C), ModoCath6 (ΔModoCath6, N-[…]-C) and PMAP36 (N-[…] PLGCG-C) were synthesized via solid-phase peptide synthesis and purified via high-performance liquid chromatography using a commercial service (GenScript, Piscataway Township, NJ, United States). The MIC of synthesized peptides was determined against a panel of bacteria comprising 3 gram-positive strains, Staphylococcus aureus ATCC 6538 (ATCC, Manassas, VA, United States), Bacillus cereus ATCC 10876, and Enterococcus faecalis ATCC 29212, and 3 gram-negative strains, Escherichia coli ATCC 25922, Pseudomonas aeruginosa ATCC 27853, and Salmonella typhimurium ATCC 14028. Ampicillin (Sigma Aldrich, St. Louis, MO, United States) and gentamicin sulfate (Sigma Aldrich) were used as controls for antimicrobial activity. The MIC was determined using a colorimetric method specified by the Microbial Viability Assay Kit-WST (Dojindo, Kumamoto, Japan) in accordance with the manufacturer’s protocol and the Clinical and Laboratory Standards Institute (CLSI) guidelines (2018). Briefly, four colonies of each bacterium were inoculated into 5 mL Luria-Bertani (LB) broth medium at 37°C for 4 to 6 h. The cells were washed with sterile saline (0.9% NaCl) twice and seeded in a single well of a 96-well plate at the cell density of 10^5 CFU/well. Subsequently, 180 μL/well of fresh Mueller-Hinton broth (MHB) was added to the plate. Different concentrations of each peptide and reference antibiotics were serially diluted in 10 μL of MHB and added to each well. The plate was incubated at 37°C for 6 h. Cation-adjusted MH broth (CAMHB) was used to culture E. faecalis. Subsequently, 10 μL of the coloring reagent was added, and cells were incubated at 37°C for 2 h. UV absorbance was measured for each well at 450 nm, using a microplate spectrophotometer (xMark spectrophotometer; Bio-Rad, Hercules, CA, United States). MIC values were determined when the difference in the optical density (OD) between treatments and blanks (media and coloring reagent only) decreased to < 0.05. Experiments were conducted in triplicate. […] The pH conditions were achieved by using acetic acid (Sigma Aldrich).

[2] = test system: Enterococcus faecalis ATCC 29212; test: microbe, parasite or virus in culture; assay type: cell-based; settings: E. faecalis ATCC 29212; CAMHB, 37°C 6 h + 2 h; triplicate
Experimental: as §1

[3] = test system: Pseudomonas aeruginosa ATCC 27853; test: microbe, parasite or virus in culture; assay type: cell-based; settings: P. aeruginosa ATCC 27853; MHB, 37°C 6 h + 2 h; triplicate
Experimental: as §1

[4] = test system: Salmonella typhimurium ATCC 14028; test: microbe, parasite or virus in culture; assay type: cell-based; settings: S. typhimurium ATCC 14028; MHB, 37°C 6 h + 2 h; triplicate
Experimental: as §1

E. coli (ATCC 25922) = test: Serum stability: antimicrobial activity after incubation in human serum; assay type: in vitro ADME, Escherichia coli; settings: for antimicrobial activity after incubation with human serum: 25% (v/v) pooled human serum, 37°C, activity against E. coli, OD 450 nm, triplicate; for antimicrobial activity after incubation with serum: 25% pooled human serum, 0, 60 and 120 min, Figure S6
Experimental: Antimicrobial peptides were dissolved in 25% (v/v) pooled human serum from five individuals, and incubated at 37°C. Aliquots were extracted in triplicate after 0, 60, and 120 min incubation, and their antimicrobial activity against E. coli (ATCC 25922) was assessed using the incubated samples, as described above.

[5] = test system: HEK293T and MCF7 cells and human primary keratinocytes; test: Cytotoxicity, summary over all tested cells; assay type: cell-based; settings: at concentrations below 16 μg/mL
Experimental: Two mammalian cell lines, including human embryonic kidney cells (HEK293T) and human breast cancer cells (MCF7) were cultured in Dulbecco’s modified Eagle’s medium (DMEM; Hyclone^TM, Logan, UT, United States) supplemented with 10% FBS (Hyclone^TM) and 1% penicillin/streptomycin (Hyclone^TM) and incubated at 37°C and 5% CO2 up to 80% confluence. Cellular adherence to the substratum was disrupted using Accutase (Innovative Cell Technologies, San Diego, CA, United States). In total, 1 × 10^4 to 4 × 10^4 cells in each well of a 96-well plate containing 8, 16, 32, and 64 μg/mL of ModoCath peptides were incubated for 24 h at 37°C and 5% CO2. Additionally, HEK293T cells were incubated in the FBS-free medium. […] Absorbance was measured for each well at 440 nm (peptide-treated and control) and 650 nm (background) and recorded as the OD, using a microplate reader (xMark^TM spectrophotometer; Bio-Rad). Cell viability was calculated using the following equation: […]
Primary keratinocytes were cultured in 96-well plates at 4 × 10^4 cells per well in 0.1 mL K-SFM (Invitrogen) up to 80% confluence before being treated with various concentrations of ModoCath peptides for 24 h. Cell viability was assessed using the cell proliferation kit II (XTT; Roche, Basel, Switzerland) in accordance with the manufacturer’s protocol. […]

[6] = at a higher concentration than 1x MIC

Row | Sequence | MIC [1] | MIC [2] | MIC [3] | MIC [4] | antimicrobial activity after incubation with human serum (E. coli (ATCC 25922); 60 min, at >∼2× MIC) | antimicrobial activity after incubation with human serum (E. coli (ATCC 25922); 120 min) | antimicrobial activity after incubation with serum (E. coli (ATCC 25922); at 1x MIC) | antimicrobial activity after incubation with serum (E. coli (ATCC 25922); [6]) | Cell survivability [5] [%]
1 | VKRTKRGARRGLTKVLKKIFGSIVKKAVSKGV [ΔModoCath1] | 30 (8.5) μg/mL | 2 (0.57) μg/mL | 2 (0.57) μg/mL | 2 (0.57) μg/mL | unaffected | decreased | highly affected | considerably stable | > 90
2 | VRRSKRGIKVPSFVKKVLKDVVSESIS [ΔModoCath6] | > 32(10.51) μg/mL | > 32(10.51) μg/mL | > 32(10.51) μg/mL | > 32(10.51) μg/mL | – | – | – | – | > 90
3 | WYQLIRTFGNLIHQKYRKLLEAYRKLRD [ΔModoCath5] | 6 (1.66) μg/mL | 2 (0.55) μg/mL | > 32(8.83) μg/mL | > 32(8.83) μg/mL | unaffected | decreased | highly affected | considerably stable | –
